How the values were obtained:
[1] = target: T1, human NPP3 (Homo sapiens, UniProt O14638); assay: NPP3 assay with ϵ-NAD+ as substrate; format: biochemical; settings: for inhibition at 10 µM: 10 µM test compound; for Ki: 20 µM ϵ-NAD+, read-out: Ki ± SEM
T1 construct: the catalytic domains of the enzymes were amplified and sub-cloned into the expression vector pACGP67 A/B; 9xHis (C); made in house; host or cells: Sf9 insect cells (baculovirus, pACGP67 A/B)
T1 sequence (O14638 31-875 limits assumed): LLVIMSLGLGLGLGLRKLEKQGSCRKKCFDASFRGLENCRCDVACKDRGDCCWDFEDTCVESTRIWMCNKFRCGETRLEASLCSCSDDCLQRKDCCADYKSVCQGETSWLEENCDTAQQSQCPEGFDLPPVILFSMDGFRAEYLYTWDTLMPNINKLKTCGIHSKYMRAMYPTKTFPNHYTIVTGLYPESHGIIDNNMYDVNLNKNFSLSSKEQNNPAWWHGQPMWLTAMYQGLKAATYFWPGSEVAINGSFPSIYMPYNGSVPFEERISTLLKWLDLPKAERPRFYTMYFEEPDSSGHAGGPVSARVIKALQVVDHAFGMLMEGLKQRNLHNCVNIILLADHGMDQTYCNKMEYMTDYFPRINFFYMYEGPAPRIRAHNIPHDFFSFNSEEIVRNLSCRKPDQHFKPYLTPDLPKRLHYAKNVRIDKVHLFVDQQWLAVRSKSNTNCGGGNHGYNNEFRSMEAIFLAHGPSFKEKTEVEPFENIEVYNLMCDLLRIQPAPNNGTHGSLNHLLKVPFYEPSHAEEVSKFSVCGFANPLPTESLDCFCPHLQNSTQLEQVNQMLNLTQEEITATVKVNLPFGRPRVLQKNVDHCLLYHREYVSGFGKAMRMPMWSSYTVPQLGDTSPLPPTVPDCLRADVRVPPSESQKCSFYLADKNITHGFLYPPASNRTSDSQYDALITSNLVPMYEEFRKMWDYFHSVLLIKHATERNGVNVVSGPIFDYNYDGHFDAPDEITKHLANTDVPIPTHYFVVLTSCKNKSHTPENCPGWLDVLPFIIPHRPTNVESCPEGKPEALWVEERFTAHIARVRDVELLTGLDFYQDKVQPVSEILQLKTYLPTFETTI
Source text: The cDNAs of the human enzymes NPP1, NPP3, NPP5, CD38 and CD73 (Genbank accession no. NM_006258, NM_005021, NM_021572, NM_ 001775, and NM_002526, respectively) were obtained from Origene (Rockville, USA). Soluble enzymes were produced as previously reported with some modifications ([Lee et al., 2015]; [Junker et al., 2019]). Briefly, the catalytic domains of the enzymes were amplified and sub-cloned into the expression vector pACGP67 A/B modified with the addition of 9 x histidine tag (His-tag) at the C-terminus (except for NPP1). The plasmids were transfected in Sf9 insect cells using Cellfectin™ II Reagent (Thermo Fisher Scientific, MA, USA) and ProEasy™ baculovirus linearized DNA (Cat.#A10S, AB Vector, LLC). Protein expression was conducted for 48 h at 27°C. The signal peptide sequence of the expression vector shuttled the proteins into the supernatant. The supernatant medium was collected, and the enzymes were purified using HisPur™ Ni^2+-NTA spin columns according to the manufacturer’s protocol. The protein concentration was determined by the method previously described by [Lowry et al. (1951)].
The assays were performed in analogy to published procedures ([Blacher et al., 2015]). The enzymatic activity of human NPP3 and NPP5 (soluble forms expressed in insect cells and purified as previously described ([Lee et al., 2015]; [Lopez et al., 2020]) was measured using 1,N^6-etheno-nicotinamide adenine dinucleotide (ϵ-NAD^+) as a substrate, which is hydrolyzed to fluorescent 1,N^6-etheno-AMP (ϵ-AMP). The enzymatic reactions were performed in reaction buffer [10 mM N-cyclohexyl-2-aminoethanesulfonic acid (CHES), 2 mM CaCl2, and 1 mM MgCl2, pH 9.0 in H2O]. Purified NPP3 (90 ng) or NPP5 (400 ng), 20 µM of ϵ-NAD^+ and 10 µM of the test compound were incubated for 30 min at 37°C. The relative fluorescence at 270 nm excitation and 420 nm emission was detected by a fluorescence microplate reader (Flexstation, Medical Devices LLC. USA, Softmax Pro software to collect the data).

[2] = Metabolic stability in mouse liver microsomes; format: in vitro ADME; settings: both sexes; mouse liver microsomes 0.5 mg/mL; compound 1 μM
Experimental: The experiments were performed by Pharmacelsus, Saarbrücken, Germany (https://www.pharmacelsus.com/services/in-vitro-adme/) using human and mouse liver microsomes (0.5 mg/mL, mixed gender, pooled). Compounds were tested at a concentration of 1 μM. Data points represent means of two separate experiments performed in duplicates.

SMILES	inhibition at 10 µM [1]	Ki [1]	half-life at 1 μM [2]
CCCCNc1nc2c(NC)ncnc2n1[C@@H]1O[C@H](COP(=O)(O)OP(=O)(O)C(Br)(Br)P(=O)(O)O)[C@@H](O)[C@H]1O [Compound 33, (Dibromo((((((2R,3S,4R,5R)-5-(8-(butylamino)-6-(methylamino)-9H-purin-9-yl)-3,4-dihydroxy-tetrahydrofuran-2-yl)methoxy)(hydroxy)phosphoryl)oxy)-(hydroxy)phosphoryl)methyl)-phosphonic Acid]	8%	> 10 µM	< 1 min
CCCCSc1nc2c(N)ncnc2n1[C@@H]1O[C@H](COP(=O)(O)OP(=O)(O)C(Br)(Br)P(=O)(O)O)[C@@H](O)[C@H]1O [Compound 31, (((((((2R,3S,4R,5R)-5-(6-Amino-8-(butylthio)-9H-purin-9-yl)-3,4-dihydroxytetrahydrofuran-2-yl)methoxy)(hydroxy)-phosphoryl)oxy)(hydroxy)phosphoryl)dibromomethyl)-phosphonic Acid]	8%	> 10 µM	< 1 min
CCN(CC)c1ncnc2c1ncn2[C@@H]1O[C@H](COP(=O)(O)OP(=O)(O)C(Br)(Br)P(=O)(O)O)[C@@H](O)[C@H]1O [ARL67156, (Dibromo((((((2R,3S,4R,5R)-5-(6-(diethylamino)-9H-purin-9-yl)-3,4-dihydroxytetrahydrofuran-2-yl)methoxy)-(hydroxy)-phosphoryl)oxy)(hydroxy)phosphoryl)methyl)-phosphonic Acid, reference compound]	13%	> 10 µM	< 1 min

— paper PMC7508162 (Frontiers in Pharmacology, 2020)
